Experiment [1] deals with PIK3CA (human) (UniProt P42336). Nature of the experiment: Assessment of PIK3CA Kinase Activity in NZB5 Cells.
The target is the same in experiment [2]. Nature of the experiment: Assessment of PIK3CA Kinase Activity in NZOV9 Cells.

PIK3CA (human), sequence (P42336 whole entry, looked up): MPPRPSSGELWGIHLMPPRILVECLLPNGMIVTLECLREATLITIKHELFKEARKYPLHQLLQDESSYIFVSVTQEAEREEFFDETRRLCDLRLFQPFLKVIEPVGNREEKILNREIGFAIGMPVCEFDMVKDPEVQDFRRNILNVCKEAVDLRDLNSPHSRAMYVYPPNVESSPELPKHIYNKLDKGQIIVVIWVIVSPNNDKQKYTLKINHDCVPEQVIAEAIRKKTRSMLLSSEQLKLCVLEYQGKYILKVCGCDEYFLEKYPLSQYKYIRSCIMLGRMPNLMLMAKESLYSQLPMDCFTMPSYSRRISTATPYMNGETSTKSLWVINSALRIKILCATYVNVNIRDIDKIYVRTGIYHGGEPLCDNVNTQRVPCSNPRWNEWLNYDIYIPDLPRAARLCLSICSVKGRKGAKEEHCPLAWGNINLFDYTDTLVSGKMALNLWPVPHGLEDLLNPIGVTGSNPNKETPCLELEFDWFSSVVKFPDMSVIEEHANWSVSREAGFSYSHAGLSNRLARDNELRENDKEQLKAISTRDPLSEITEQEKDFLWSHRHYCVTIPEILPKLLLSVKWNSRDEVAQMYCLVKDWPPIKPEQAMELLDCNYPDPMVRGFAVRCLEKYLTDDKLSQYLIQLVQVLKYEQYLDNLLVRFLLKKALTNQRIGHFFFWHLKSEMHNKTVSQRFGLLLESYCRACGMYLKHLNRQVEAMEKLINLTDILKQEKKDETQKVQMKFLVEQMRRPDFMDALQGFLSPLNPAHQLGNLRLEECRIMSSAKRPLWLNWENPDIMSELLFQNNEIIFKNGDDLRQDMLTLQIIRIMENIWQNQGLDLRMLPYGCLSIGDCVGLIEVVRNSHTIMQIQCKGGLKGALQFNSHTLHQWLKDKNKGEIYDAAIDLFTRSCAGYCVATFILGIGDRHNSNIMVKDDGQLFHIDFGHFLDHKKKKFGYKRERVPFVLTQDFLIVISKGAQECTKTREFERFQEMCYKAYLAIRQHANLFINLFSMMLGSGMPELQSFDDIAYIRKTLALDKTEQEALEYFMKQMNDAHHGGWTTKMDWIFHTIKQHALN

In general, IC50 refers to the midpoint of a concentration-inhibition curve. Low readings indicate greater potency in that assay, high ones weaker potency in that assay. As for `Cc1ccccc1S(=O)(=O)N(C)N=Cc1cnn2ccc(C#N)cc12`, the IC50 against PIK3CA (human) [1] was greater than 20 µM.

`CN(C)c1ccc([N+](=O)[O-])cc1S(=O)(=O)N(C)N=Cc1cnn2ccc(C#N)cc12` came in with an IC50 against PIK3CA (human) [2] of 0.1 µM. Take `Cc1ccc([N+](=O)[O-])cc1C(=O)N(C)N=Cc1cnn2ccc(C#N)cc12`: the IC50 against PIK3CA (human) [1] and on PIK3CA (human) [2] was greater than 20 µM in each case. Turning to `Cc1ccc(C(=O)O)cc1S(=O)(=O)N(C)N=Cc1cnn2ccc(C#N)cc12`, the concentration for half-maximal inhibition (IC50) against PIK3CA (human) [1] and against PIK3CA (human) [2] was greater than 20 µM in each case. For `Cc1cc([N+](=O)[O-])ccc1S(=O)(=O)N(C)N=Cc1cnn2ccc(C#N)cc12`, the concentration for half-maximal inhibition (IC50) against PIK3CA (human) [1] and on PIK3CA (human) [2] was greater than 20 µM each time. Take `Cc1c([N+](=O)[O-])cccc1S(=O)(=O)N(C)N=Cc1cnn2ccc(C#N)cc12`: the IC50 against PIK3CA (human) [1] and against PIK3CA (human) [2] was greater than 20 µM each time. For the molecule `CC(=O)Nc1ccc(C)c(S(=O)(=O)N(C)N=Cc2cnn3ccc(C#N)cc23)c1`, the IC50 against PIK3CA (human) [1] and at PIK3CA (human) [2] was greater than 20 µM throughout. For the molecule `Cc1ccc(F)cc1S(=O)(=O)N(C)N=Cc1cnn2ccc(C#N)cc12`, the IC50 against PIK3CA (human) [1] was greater than 20 µM.

The values above are taken from the Kinase Knowledgebase extract (Sharma et al. 2016).
